Laboratory results from US20130035343A1, “COMBINATION OF ORGANIC COMPOUNDS” (priority 2010, published 2013).

Tested on: patient-derived HCC xenograft lines (07-0409, 29-0909A, 01-0909)
Experiment: Patient-derived HCC xenograft models in SCID mice
Conditions: for tumor growth rate of xenografts / tumor regressions: single agent therapy, 30 mg/kg Compound of Formula I or 5 mg/kg RAD001 orally daily, HCC07-0409
[1] = 30 mg/kg Compound of Formula I orally daily, SCID mice

Description: Xenograft models: All mice were provided with sterilized food and water ad libitum and housed in negative pressure isolators with 12 hours light/dark cycle. Primary HCCs have previously been used to create xenograft lines, of which the following lines (07-0409, 29-0909A, 01-0909) were used to establish tumors in male SCID mice (Animal Resources Centre, Canning Vale, Western Australia) aged 9 to 10 weeks.
Tumor treatment: Compound of Formula I and RAD001 was dissolved in vehicle at an appropriate concentration before treatment. Mice bearing indicated tumors were orally administered 5 mg/kg RAD001 or 30 mg/kg Compound of Formula I daily, or two compounds combined for indicated days. Each treatment group was comprised of 10 animals and each experiment was repeated at least twice. Treatment started on day 7 after tumor implantation. By this time, the tumors reached the size of approximately 100 mm^3. Tumor growth was monitored and tumor volume was calculated as described. At the end of the study, the mice were sacrificed with body and tumor weights recorded and the tumors harvested for analysis. The efficacy of Compound of Formula I was determined by T/C ratio, where T and C are median weight of drug-treated and vehicle-treated tumor respectively at the end of treatment.

Structure (SMILES)	acute mortality throughout treatment [1]	body weight loss throughout treatment [1]	anti-tumor activities on patient-derived HCC xenograft lines (lines 07-0409, 29-0909A, 01-0909, 30 mg/kg orally daily)	tumor growth rate of xenografts	tumor regressions
CN1CCN(c2ccc3nc(-c4c(N)c5c(F)cccc5[nH]c4=O)[nH]c3c2)CC1 [Compound of Formula I, 4-Amino-5-fluoro-3-[6-(4-methylpiperazin-1-yl)-1H-benzimidazol-2-yl]-1H-quinolin-2-one]	no acute mortality	no significant weight loss	observed	inhibited	did not induce tumor regressions
CO[C@H]1C[C@@H]2CC[C@@H](C)[C@@](O)(O2)C(=O)C(=O)N2CCCC[C@H]2C(=O)O[C@H]([C@H](C)C[C@@H]2CC[C@@H](OCCO)[C@H](OC)C2)CC(=O)[C@H](C)/C=C(\C)[C@@H](O)[C@@H](OC)C(=O)[C@H](C)C[C@H](C)/C=C/C=C/C=C/1C [RAD001, 40-O-(2-hydroxy)ethyl-rapamycin, reference compound]				inhibited	did not induce tumor regressions
